Experiment: Hematology assays in cynomolgus monkeys (Example 45)
Type: in vivo
Details: for MCH / MCHC / MCV / RBC count / WBC count / hematocrit / hemoglobin: escalating dose regimen
Summary of the method: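 Cynomolgus monkeys (2 male, 3 female per group) dosed subcutaneously with antisense oligonucleotide or PBS, escalating 5, 10, then 25 mg/kg two to three times weekly over 12 weeks; one chronic group held at 10 mg/kg from week 4. Blood sampled weekly; necropsy on day 85.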

Substance “ISIS 417002: MOE gapmer, nucleobases 1275 to 1318 of SEQ ID NO: 1 (Table 8) (antisense GGTGCACAGTTTCTGGCAGG; MOE gapmer, wing and gap sizes not given here)” has an MCH (Day 64) of 22 pg, an MCH (Day 71) of 23 pg and an MCH (Day 78) of 23 pg. The MCH (Day 85) was 23 pg, the basophils (day 8) was 0.3% and the eosinophils (day 8) was 0.2%. It also gave a lymphocytes (day 8) of 50%, a monocytes (day 8) of 3.3% and a neutrophils (day 8) of 46%. It also gave a platelet count (day 8) of 435000 µL⁻¹, a reticulocytes (day 8) of 1.1% and an MCH (day 8) of 23 pg. It also gave an MCHC (day 8) of 29 g/dL, an MCV (day 8) of 79 fL and an RBC count (day 8) of 5.6e+06 µL⁻¹. The WBC count (day 8) was 10000 µL⁻¹, the hematocrit (day 8) was 44% and the hemoglobin (day 8) was 12.8 g/dL. It also gave a basophils (day 15) of 0.2%, an eosinophils (day 15) of 0.1% and a lymphocytes (day 15) of 40%. For the same substance, the monocytes (day 15) was 2.3%, the neutrophils (day 15) was 57% and the platelet count (day 15) was 410000 µL⁻¹. The reticulocytes (day 15) was 1.1%, the MCH (day 15) was 23 pg and the MCHC (day 15) was 31 g/dL. It also gave an MCV (day 15) of 76 fL, an RBC count (day 15) of 5.4e+06 µL⁻¹ and a WBC count (day 15) of 10000 µL⁻¹. For the same substance, the hematocrit (day 15) was 40%, the hemoglobin (day 15) was 12.3 g/dL and the basophils (day 22) was 0.2%. For the same substance, the eosinophils (day 22) was 0.3%, the lymphocytes (day 22) was 41% and the monocytes (day 22) was 3.1%. It also gave a neutrophils (day 22) of 55%, a platelet count (day 22) of 377000 µL⁻¹ and a reticulocytes (day 22) of 1.2%. For the same substance, the MCH (day 22) was 23 pg, the MCHC (day 22) was 29 g/dL and the MCV (day 22) was 79 fL. For the same substance, the RBC count (day 22) was 5.2e+06 µL⁻¹, the WBC count (day 22) was 10000 µL⁻¹ and the hematocrit (day 22) was 41%. For the same substance, the hemoglobin (day 22) was 12.1 g/dL, the basophils (day 29) was 0.2% and the eosinophils (day 29) was 0.3%. For the same substance, the lymphocytes (day 29) was 50%, the monocytes (day 29) was 3.5% and the neutrophils (day 29) was 45%. The platelet count (day 29) was 410000 µL⁻¹, the reticulocytes (day 29) was 1.6% and the MCH (day 29) was 23 pg. For the same substance, the MCHC (day 29) was 29 g/dL, the MCV (day 29) was 81 fL and the RBC count (day 29) was 5.2e+06 µL⁻¹. It also gave a WBC count (day 29) of 10000 µL⁻¹, a hematocrit (day 29) of 42% and a hemoglobin (day 29) of 12.0 g/dL. The basophils (day 36) was 0.2%, the eosinophils (day 36) was 0.2% and the lymphocytes (day 36) was 35%. The monocytes (day 36) was 2.6%, the neutrophils (day 36) was 61% and the platelet count (day 36) was 415000 µL⁻¹. The reticulocytes (day 36) was 1.3%, the MCH (day 36) was 23 pg and the MCHC (day 36) was 30 g/dL. For the same substance, the MCV (day 36) was 78 fL, the RBC count (day 36) was 5.4e+06 µL⁻¹ and the WBC count (day 36) was 11000 µL⁻¹. For the same substance, the hematocrit (day 36) was 42%, the hemoglobin (day 36) was 12.5 g/dL and the basophils (day 43) was 0.3%. For the same substance, the eosinophils (day 43) was 0.2%, the lymphocytes (day 43) was 39% and the monocytes (day 43) was 2.8%. It also gave a neutrophils (day 43) of 57%, a platelet count (day 43) of 393000 µL⁻¹ and a reticulocytes (day 43) of 1.1%. The MCH (day 43) was 23 pg, the MCHC (day 43) was 30 g/dL and the MCV (day 43) was 77 fL. It also gave an RBC count (day 43) of 5.4e+06 µL⁻¹, a WBC count (day 43) of 10000 µL⁻¹ and a hematocrit (day 43) of 41%. For the same substance, the hemoglobin (day 43) was 12.3 g/dL, the basophils (day 50) was 0.3% and the eosinophils (day 50) was 0.1%. The lymphocytes (day 50) was 34%, the monocytes (day 50) was 3.1% and the neutrophils (day 50) was 61%. It also gave a platelet count (day 50) of 389000 µL⁻¹, a reticulocytes (day 50) of 1.6% and an MCH (day 50) of 23 pg. For the same substance, the MCHC (day 50) was 29 g/dL, the MCV (day 50) was 80 fL and the RBC count (day 50) was 5.4e+06 µL⁻¹. The WBC count (day 50) was 13000 µL⁻¹, the hematocrit (day 50) was 43% and the hemoglobin (day 50) was 12.3 g/dL. It also gave a basophils (day 57) of 0.3%, an eosinophils (day 57) of 0.2% and a lymphocytes (day 57) of 40%. It also gave a monocytes (day 57) of 3.6%, a neutrophils (day 57) of 54% and a platelet count (day 57) of 403000 µL⁻¹. For the same substance, the reticulocytes (day 57) was 4.6%, the MCH (day 57) was 23 pg and the MCHC (day 57) was 29 g/dL. For the same substance, the MCV (day 57) was 80 fL, the RBC count (day 57) was 4.9e+06 µL⁻¹ and the WBC count (day 57) was 12000 µL⁻¹. For the same substance, the hematocrit (day 57) was 38%, the hemoglobin (day 57) was 11.3 g/dL and the basophils (day 64) was 0.2%. The eosinophils (day 64) was 0.2%, the lymphocytes (day 64) was 39% and the monocytes (day 64) was 4.0%. For the same substance, the neutrophils (day 64) was 55%, the platelet count (day 64) was 436000 µL⁻¹ and the reticulocytes (day 64) was 1.3%. It also gave an MCHC (day 64) of 30 g/dL, an MCV (day 64) of 76 fL and an RBC count (day 64) of 5.4e+06 µL⁻¹. The WBC count (day 64) was 11000 µL⁻¹, the hematocrit (day 64) was 41% and the hemoglobin (day 64) was 12.2 g/dL. The basophils (day 71) was 0.3%, the eosinophils (day 71) was 0.3% and the lymphocytes (day 71) was 59%. For the same substance, the monocytes (day 71) was 4.7%, the neutrophils (day 71) was 34% and the platelet count (day 71) was 490000 µL⁻¹. It also gave a reticulocytes (day 71) of 1.3%, an MCHC (day 71) of 29 g/dL and an MCV (day 71) of 78 fL. The RBC count (day 71) was 5.5e+06 µL⁻¹, the WBC count (day 71) was 12000 µL⁻¹ and the hematocrit (day 71) was 43%. It also gave a hemoglobin (day 71) of 12.5 g/dL, a basophils (day 78) of 0.3% and an eosinophils (day 78) of 0.1%. For the same substance, the lymphocytes (day 78) was 41%, the monocytes (day 78) was 4.7% and the neutrophils (day 78) was 51%. It also gave a platelet count (day 78) of 432000 µL⁻¹, a reticulocytes (day 78) of 1.3% and an MCHC (day 78) of 31 g/dL. It also gave an MCV (day 78) of 75 fL, an RBC count (day 78) of 5.4e+06 µL⁻¹ and a WBC count (day 78) of 9000 µL⁻¹. The hematocrit (day 78) was 40%, the hemoglobin (day 78) was 12.4 g/dL and the basophils (day 85) was 0.3%. It also gave an eosinophils (day 85) of 0.2%, a lymphocytes (day 85) of 56% and a monocytes (day 85) of 5.3%. It also gave a neutrophils (day 85) of 36%, a platelet count (day 85) of 418000 µL⁻¹ and a reticulocytes (day 85) of 1.4%. It also gave an MCHC (day 85) of 30 g/dL, an MCV (day 85) of 76 fL and an RBC count (day 85) of 5.4e+06 µL⁻¹. The WBC count (day 85) was 10000 µL⁻¹, the hematocrit (day 85) was 41% and the hemoglobin (day 85) was 12.2 g/dL. For the same substance, the basophils (day −5) was 0.3%, the eosinophils (day −5) was 0.3% and the lymphocytes (day −5) was 53%. The monocytes (day −5) was 3.2%, the neutrophils (day −5) was 43% and the platelet count (day −5) was 466000 µL⁻¹. The reticulocytes (day −5) was 0.8%, the MCH (day −5) was 24 pg and the MCHC (day −5) was 30 g/dL. It also gave an MCV (day −5) of 80 fL, an RBC count (day −5) of 5.6e+06 µL⁻¹ and a WBC count (day −5) of 14000 µL⁻¹. It also gave a hematocrit (day −5) of 45%, a hemoglobin (day −5) of 13.2 g/dL and a basophils (day −14) of 0.3%. For the same substance, the eosinophils (day −14) was 0.3%, the lymphocytes (day −14) was 53% and the monocytes (day −14) was 3.0%. The neutrophils (day −14) was 43%, the platelet count (day −14) was 442000 µL⁻¹ and the reticulocytes (day −14) was 0.9%. The MCH (day −14) was 24 pg, the MCHC (day −14) was 30 g/dL and the MCV (day −14) was 79 fL. For the same substance, the RBC count (day −14) was 5.6e+06 µL⁻¹, the WBC count (day −14) was 13000 µL⁻¹ and the hematocrit (day −14) was 44%. It also gave a hemoglobin (day −14) of 13.0 g/dL.

Source: patent US20230263822A1, “MODULATION OF FACTOR 11 EXPRESSION” (Ionis Pharmaceuticals, Inc., priority 2008, published 2023)
